# Experiments:
# [1] = system: PHTX-14B breast xenograft; assay: In vivo tumor efficacy, PHTX-14B breast xenograft model; set-up: species or system female Balb/c nude mice; conditions: for Average tumor volume at day 21: PO
# From the text: The PHTX-14B breast xenograft model was established from a patient-derived tumor collected during surgery from a person with ductal carcinoma classified as triple negative breast cancer (ER−/PR−/Her2−) by IHC. PHTX-14B tumor fragments (approximately 2×2×3 mm^3) at passage 7 are implanted into the subcutaneous space in the right dorsal flank of female Balb/c nude mice (age 4-6 weeks, Shanghai SINO-British SIPPR/BK Lab Animal Ltd) using a 13-gauge trocar tumor implantation needle.
# (§1) MLN8237 was formulated in 10% HPbCD+1% NaHCO3 and administered by oral injection (1 cc syringe, 20-22 gauge, oral gavages needle) on QD schedule at 3 mg/kg and 20 mg/kg for 21 days. MLN8237 as used in the experimental section refers to sodium 4-{[9-chloro-7-(2-fluoro-6-methoxyphenyl)-5H-pyrimido[5,4-d][2]benzazepin-2-yl]amino}-2-methoxybenzoate monohydrate and the amount referenced is the amount of alisertib dosed. MLN8237 is dosed 24 hours prior to MLN0128 in all three models.
# (§2) MLN0128 is formulated in 100% PEG400 and administered by oral injection (1 cc syringe, 20-22 gauge, oral gavages needle) on QD schedule at 0.3 mg/kg for 21 days. 1 mg/kg QD×3/weeks for 3 weeks. MLN0128 is dosed 24 hours after MLN8237 dosing.
# (§3) Tumors are measured twice weekly using a vernier caliper. Tumor volumes are calculated using standard procedures (0.5×(length×width^2)). When the tumors reached a volume of approximately 200 mm^3 (PHTX-14B, PHTX-147B) or 167 mm^3 (SUM-149PT), mice are randomized into groups of 8 as described in the tables below, and dosed with vehicle, MLN8237 or MLN0128 or the combination of MLN8237 with MLN0128, at various doses as described below in Tables 8a-10a. Tumor size and body weight are measured approximately twice a week for the duration of the study. Mice are euthanized when their tumor volume reached 10% of their body weight, or when the average tumor volume of a treatment or control group reached approximately 2000 mm^3. Tumor growth continued to be monitored after the dosing period in some studies. Average tumor volume is reported as a function of time for selected groups of selected studies in FIGS. 3, 4 and 5.
# (§4) Measurements from day 0 to 21 are analyzed as specified in Tables 8a-10a. All tumor volumes have a value of 1 added to them before log10 transformation. For each animal, the log tumor volume at day 0 is subtracted from the log tumor volume on the subsequent days. This difference vs. time is used to calculate an area under the curve (AUC) for each animal using the trapezoid rule. In instances when an animal in a treatment group is removed early from the study, the last observed tumor value is carried forward through all subsequent time points. The synergy score for the combination of agents A and B is defined as: 100*(mean(AUCAB)−mean(AUCA)−mean(AUCB)+mean(AUCctl))/mean(AUCctl): where AUCAB, AUCA, AUCB, and AUCctl are the AUC values for animals in the combination group, the A group, the B group, and the control group, respectively. The standard error of the synergy score is computed based on the variation in the AUC values among the animals. […] If the P-value is above 0.05, then the combination is considered to be additive. If the P-value is below 0.05, and the synergy score is less than zero, then the combination is considered to be synergistic. […] Otherwise, the combination is classified as antagonistic.
# [2] = system: PHTX-147B breast xenograft; assay: In vivo tumor efficacy, PHTX-147B breast xenograft model; set-up: species or system female Balb/c nude mice; conditions: PO
# From the text: The PHTX-147B breast xenograft model was established from a patient-derived tumor collected during surgery from a person with ductal carcinoma classified as triple negative breast cancer (ER−/PR−/Her2−) by IHC. PHTX-147B tumor fragments (approximately 2×2×3 mm^3) at passage 7 are implanted into the subcutaneous space in the right dorsal flank of female Balb/c nude mice (age 4-6 weeks, Shanghai SINO-British SIPPR/BK Lab Animal Ltd.).
# as §1, §2, §3, §4
# [3] = system: SUM-149PT breast xenograft; assay: In vivo tumor efficacy, SUM-149PT breast xenograft model; set-up: species or system Balb/c Nude mice; conditions: PO
# Experimental: SUM-149PT (5×10^6) is a tumor cell line grown in Ham's F12 (BD Biosciences) media with 5% FBS, supplemented with 5 μg/ml insulin and 1 μg/ml hydrocortisone media mixed with an equal volume of Matrigel (BD Biosciences). Cell suspension at passage 84 was aseptically injected into the subcutaneous space in the right dorsal flank of Balb/c Nude mice (age 8 weeks, Shanghai SINO-British SIPPR/BK Lab Animal Ltd.) using a 25-gauge needle.
# as §1, §2, §3, §4
# [4] = MLN8237 alone at 3 mg/kg, QD×21
# [5] = MLN8237 alone at 20 mg/kg, QD×21
# [6] = MLN0128 alone at 0.3 mg/kg, QD×21
structure (smiles),measurement,setting,value
"COc1cc(Nc2ncc3c(n2)-c2ccc(Cl)cc2C(c2c(F)cccc2OC)=NC3)ccc1C(=O)[O-].O.[Na+] [MLN8237, sodium 4-{[9-chloro-7-(2-fluoro-6-methoxyphenyl)-5H-pyrimido[5,4-d][2]benzazepin-2-yl]amino}-2-methoxybenzoate monohydrate]",Average tumor volume at day 21,"[1]; 3 mg/kg MLN8237, QD",795.1 mm^3
same,Average tumor volume at day 21,"[1]; 20 mg/kg MLN8237, QD",533.9 mm^3
same,antitumor activity in PHTX-14B xenografts,"[1]; MLN8237 at 3 mg/kg alone, QD×21",limited and not significant
same,effect on growth of PHTX-14B xenografts,"[1]; MLN8237 at 20 mg/kg alone, QD×21",significantly delayed growth
same,Average tumor volume at day 21,"[2]; 3 mg/kg MLN8237, QD",1951.9 mm^3
same,Average tumor volume at day 21,"[2]; 20 mg/kg MLN8237, QD",1694.9 mm^3
same,effect on PHTX-147B xenograft growth,[2]; [4],only slight or no effect
same,effect on PHTX-147B xenograft growth,[2]; [5],only slight or no effect
same,Average tumor volume at day 21,"[3]; 3 mg/kg MLN8237, QD",613.4 mm^3
same,Average tumor volume at day 21,"[3]; 20 mg/kg MLN8237, QD",451.6 mm^3
same,effect on growth of SUM149PT xenografts,[3]; [4],significantly delayed the growth
same,effect on growth of SUM149PT xenografts,[3]; [5],significantly delayed the growth
"CC(C)n1nc(-c2ccc3oc(N)nc3c2)c2c(N)ncnc21 [MLN0128, 3-(2-amino-1,3-benzoxazol-5-yl)-1-(propan-2-yl)-1H-pyrazolo [3,4-d] pyrimidin-4-amine]",Average tumor volume at day 21,"[1]; 0.3 mg/kg MLN0128, QD",539.1 mm^3
same,Average tumor volume at day 21,"[1]; 1 mg/kg MLN0128, QD × 3/week",475.6 mm^3
same,effect on growth of PHTX-14B xenografts,"[1]; MLN0128 at 0.3 mg/kg alone, QD×21",significantly delayed growth
same,effect on growth of PHTX-14B xenografts,[1]; MLN0128 at 1.0 mg/kg alone,significantly delayed growth
same,Average tumor volume at day 21,"[2]; 0.3 mg/kg MLN0128, QD",1354.1 mm^3
same,Average tumor volume at day 21,"[2]; 1 mg/kg MLN0128, QD × 3/week",974.8 mm^3
same,effect on growth of PHTX-147B xenografts,[2]; [6],responded moderately
same,effect on growth of PHTX-147B xenografts,"[2]; MLN0128 alone at 1.0 mg/kg, QD×3/wk×3",significantly delayed the growth
same,Average tumor volume at day 21,"[3]; 0.3 mg/kg MLN0128, QD",524.5 mm^3
same,Average tumor volume at day 21,"[3]; 1 mg/kg MLN0128, QD × 3/week",696.8 mm^3
same,effect on growth of SUM149PT xenografts,[3]; [6],significantly delayed the growth
same,effect on growth of SUM149PT xenografts,"[3]; MLN0128 alone at 1.0 mg/kg, QD×3/wk×3 weeks",only responded lightly
